Measured values: paper PMC3914891, “Pentacyclic Nitrofurans with In Vivo Efficacy and Activity against Nonreplicating Mycobacterium tuberculosis” (PLoS ONE, 2014)
Values after ≈ are worked out from the molar mass of the structure shown. Where two headings read alike, the source gives them in different places. Marks after values point to notes of the source that are not given here.

Assays:
M. tuberculosis = test: MIC determination, microbroth dilution, M. tuberculosis; format: cell-based, Mycobacterium tuberculosis
Vero cells [1] = conditions: cited from earlier work
Vero cells [2] = test: In vitro cytotoxicity against Vero cells
[3] = mouse plasma; ref footnote g, values reported in reference (number not given); cited from earlier work
[4] = test system: M. tuberculosis strain H37Rv (mid-log and nutrient-starved); test: Nutrient starvation model of nonreplicating persisters; format: cell-based, Mycobacterium tuberculosis
[5] = test system: hypoxic M. tuberculosis strain H37Rv; test: NRP bacteria under hypoxia (rapid anaerobic dormancy model); format: cell-based, Mycobacterium tuberculosis
M. tuberculosis Erdman = conditions: mouse, in vivo, po, 25 mg/kg
[6] = test system: M. bovis strain BCG Pasteur; format: cell-based
[7] = test system: M. tuberculosis strain H37Rv; test: Checkerboard synergy assay; format: cell-based, Mycobacterium tuberculosis; conditions: for MIC: Mycobacterium tuberculosis, 168 h, read-out: MIC Alone
E. coli K12 ∆tolC = format: cell-based; conditions: E. coli K12 ∆tolC (efflux pump deficient)
[8] = test system: Staphylococcus aureus (ATCC 29213); test: MIC, spectrum of activity: S.a.; format: cell-based; conditions: ATCC29213, read-out: Minimum Inhibitory Concentration, S.a
[9] = test system: Bacillus anthracis sterne 34F2; test: microbe, parasite or virus in culture; format: cell-based; conditions: STERNE34F2, read-out: Minimum Inhibitory Concentration, B.a.
physchem = conditions: pH 7.4, aqueous buffer
M. fortuitum (ATCC 6841) = test: MIC, non-tuberculosis mycobacteria: M. fortuitum; format: cell-based; conditions: Mycolicibacterium fortuitum, ATCC6841, 72 h; broth dilution, visual inspection, 3 days; read-out: Minimum Inhibitory Concentration, M. fortuitum
[10] = test system: Burkholderia cepacia (ATCC 25416); test: MIC, spectrum of activity: B.c.; format: cell-based; conditions: ATCC25416, read-out: Minimum Inhibitory Concentration, B.c.
[11] = test system: Streptococcus pneumoniae (R6); test: MIC, spectrum of activity: S.pn; format: cell-based; conditions: read-out: Minimum Inhibitory Concentration, S. Pn.
M. tuberculosis H37Rv = test: Minimum bactericidal concentration determination; format: cell-based, Mycobacterium tuberculosis
[12] = test system: Streptococcus pyogenes (ATCC 700294); test: MIC, spectrum of activity: S.py; format: cell-based; conditions: ATCC700294, read-out: Minimum Inhibitory Concentration, S. Py.
H37Rv-wt = test: microbe, parasite or virus in culture; format: cell-based, M. tuberculosis; conditions: Mycobacterium tuberculosis
M. kansasii (ATCC 12478) = test: MIC, non-tuberculosis mycobacteria: M. kansasii; format: cell-based; conditions: Mycobacterium kansasii, ATCC12478, 168 h; broth dilution, visual inspection, 7 days; read-out: Minimum Inhibitory Concentration, M. kansasii
in vitro [13] = conditions: mouse, microsomes
[14] = test system: M. abscessus (ATCC 19977); test: MIC, non-tuberculosis mycobacteria: M. abscessus; format: cell-based; conditions: Mycobacteroides abscessus, ATCC19977, 72 h, read-out: Minimum Inhibitory Concentration, M. abscessus
[15] = In vitro cytotoxicity against Vero cells; conditions: African green monkey, Vero cells (kidney epithelial cells, ATCC CCL-81)
M. ulcerans (ATCC 35840) = test: MIC by agar proportion method: M. ulcerans; format: cell-based; conditions: Mycobacterium ulcerans, ATCC35840, 672 h; agar proportion method, 4 weeks; read-out: Minimum Inhibitory Concentration, M. ulcerans
[16] = test system: Enterococcus faecalis (ATCC 33186); test: MIC, spectrum of activity: E.f.; format: cell-based; conditions: ATCC33186, read-out: Minimum Inhibitory Concentration, E.f.
[17] = test system: Stenotrophomonas maltophilia (ATCC 13637); test: MIC, spectrum of activity: S.m.; format: cell-based; conditions: ATCC13637, read-out: Minimum Inhibitory Concentration, S.m.
M. avium (ATCC 25291) = test: MIC, non-tuberculosis mycobacteria: M. avium; format: cell-based; conditions: Mycobacterium avium, ATCC25291, 168 h; broth dilution, visual inspection, 7 days; read-out: Minimum Inhibitory Concentration, M. avium
[18] = test system: Escherichia coli (ATCC 700926); test: MIC, spectrum of activity: E.c.; format: cell-based; conditions: ATCC700926, read-out: Minimum Inhibitory Concentration, E.c.
[19] = test system: Bacillus subtilis (ATCC 23857); test: MIC, spectrum of activity: B.s.; format: cell-based; conditions: ATCC23857, read-out: Minimum Inhibitory Concentration, B.s.
in vitro [20] = conditions: mouse, plasma
[21] = test system: Staphylococcus aureus (NRS70); test: MIC, spectrum of activity: MRSA; format: cell-based; conditions: read-out: Minimum Inhibitory Concentration, MRSA

## O=[N+]([O-])c1ccc(C2=NOC(c3ccc(N4CCOCC4)cc3)C2)o1 (centres unmarked) [Compound 2]
other
  Solubility (pH 7.4): 9.9 µg/mL
M. tuberculosis; Mycobacterium tuberculosis, 168 h, read-out: M. tb. MIC
  MIC: 0.006 µg/mL
Vero cells [1]
  Cytotoxicity IC50: 2.9 ^g µg/mL
Vero cells [2]
  Selective Index (Cytox/MIC): 483
[3]
  Plasma Protein binding: 96.4 ^g %

## NNC(=O)c1ccncc1 [Isoniazid]
[4]
  fold less active against nutrient starved bacteria than against actively growing culture: 7 fold
  reduction in viability (killing) of actively growing culture: > 95%
[5]
  % Growth vs. Control: 29.1–49.1%
M. tuberculosis Erdman
  Log10CFU (SEM), lungs: 4.60 (0.21) Log10CFU
  Log10CFU (SEM), spleen: 2.61 (0.09) Log10CFU
[6]
  PAE: 71.8 h
[7]
  FICI with 9a: 0.52–2.00
  MIC in presence of 9a: 0.01 to 0.02 µg/mL
  Type of Interaction: Indifference (key: Synergy: synergy (FICI ≤0.5); Indifference: indifference (FICI >0.5–4.0); Antagonism: antagonism (FICI >4.0))
[7]; H37RV
  MIC: 0.02 µg/mL

## O=[N+]([O-])c1cn2c(n1)OC[C@@H](OCc1ccc(OC(F)(F)F)cc1)C2 [PA-824]
E. coli K12 ∆tolC
  Minimum Inhibitory Concentration, E.c. ΔtolC: >200 µg/mL
[8]
  MIC: > 200 µg/mL
[9]
  MIC: > 200 µg/mL
[5]
  % Growth vs. Control: <0.1%
[5]; 10 µg/mL, NRP-2 bacilli
  killing of hypoxic bacilli: > 99.9%
physchem
  solubility: 8.5 µg/mL (≈ 23.7 µM)
M. fortuitum (ATCC 6841)
  MIC: > 200 µg/mL
[10]
  MIC: > 200 µg/mL
[11]
  MIC: > 200 µg/mL
M. tuberculosis H37Rv
  MBC: >6
M. tuberculosis H37Rv; cidal or static from MBC versus MIC
  Classification: Static (static (MBC/MIC >4))
[12]
  MIC: > 200 µg/mL
H37Rv-wt
  MIC: 0.1 µg/mL (≈ 0.278 µM)
M. kansasii (ATCC 12478)
  MIC: 3.1 to 12.5 µg/mL (≈ 8.63 to 34.8 µM)
M. tuberculosis; Mycobacterium tuberculosis, 168 h; read-out: M. tb. MIC
  MIC: 0.39 µg/mL
M. tuberculosis; Mycobacterium tuberculosis; M. tuberculosis; […]; read-out: MIC
  MIC: > 1 µM
In vitro [13]
  half-life: 8.12 h
[14]
  MIC: > 200 µg/mL
[7]
  MIC in presence of 9a: 0.01 to 0.02 µg/mL
[7]; checkerboard, H37Rv, 7 days
  MIC: 0.2 to 0.8 µg/mL
[7]; checkerboard, H37Rv
  fold decrease of MIC in the presence of 9a: ~10 fold
[7]; interaction of the treatment with 9a
  Type of Interaction: Synergy (synergy (FICI ≤0.5))
Vero cells [2]
  Selective Index (Cytox/MIC): 178
[15]
  IC50: 69.4 µg/mL (≈ 193 µM)
M. ulcerans (ATCC 35840)
  MIC: 3.1 to 25 µg/mL (≈ 8.63 to 69.6 µM)
[16]
  MIC: > 200 µg/mL
[17]
  MIC: > 200 µg/mL
M. avium (ATCC 25291)
  MIC: > 200 µg/mL
[18]
  MIC: > 200 µg/mL
[19]
  MIC: 200 µg/mL (≈ 557 µM)
In vitro [20]
  fraction unbound: 0.071
[21]
  MIC: > 200 µg/mL
